In PubChem BioAssay (NCI) one finds TGI data, which are given here for three compounds.

Molecules are shown by their SMILES.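 Assay format: 96-well plates, 48-hour exposure. At the TGI there is no net growth.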 A value given as a limit tells only on which side of the number the result lay.

Some test systems named below: COLO 205 colon; SF-268 CNS; SW-620 colon; UACC-257 melanoma; SF-295 CNS; SNB-19 CNS; UACC-62 melanoma; MOLT-4 leukemia; HT29 colon; T-47D breast; SK-MEL-5 melanoma; UO-31 renal; ACHN renal; HS 578T breast; HCT-15 colon; CAKI-1 renal; MDA-N; SK-MEL-2 melanoma; K-562 leukemia.
Holding throughout (assay): inhibition of tumour cell growth, NCI panel, 48 h

As for `CN(C)/C=N/S(=O)(=O)c1nn2c(C=O)c(-c3ccc([N+](=O)[O-])cc3)nc2s1`, the TGI in the experiment on COLO 205 colon was above 34.3 µM; in the experiment with SF-268 CNS it was above 72.9 µM; in the experiment on SW-620 colon, above 34 µM; in the experiment with UACC-257 melanoma it was 40.5 µM; in the experiment on SF-295 CNS it was above 100 µM; in the experiment with SNB-19 CNS it was above 100 µM. Moreover, the TGI in the experiment with UACC-62 melanoma was 23 µM; in the experiment on MOLT-4 leukemia, above 21.8 µM; with HT29 colon, 4.38 µM; in the experiment with T-47D breast it was above 45.4 µM; in the experiment with SK-MEL-5 melanoma, 17.4 µM; in the experiment on UO-31 renal it was 13.2 µM. Further, the TGI is 10.5 µM in the experiment with ACHN renal; above 71.8 µM in the experiment with HS 578T breast; above 49.6 µM in the experiment on HCT-15 colon; 7.13 µM in the experiment on CAKI-1 renal; 17 µM in the experiment with MDA-N; 51.3 µM in the experiment with SK-MEL-2 melanoma. The compound further registered a TGI with K-562 leukemia above 27.3 µM.

Take `CCOC(=O)C(Cc1cn(S(=O)(=O)c2ccc(C)cc2)cn1)P(=O)(OCC)OCC` (configuration not stated): the TGI in the experiment with COLO 205 colon, in the experiment on SF-268 CNS, with SW-620 colon, in the experiment with UACC-257 melanoma, in the experiment on SF-295 CNS and in the experiment with SNB-19 CNS was above 100 µM throughout. The TGI with UACC-62 melanoma, in the experiment on MOLT-4 leukemia, in the experiment on HT29 colon, in the experiment on T-47D breast, in the experiment with SK-MEL-5 melanoma and with UO-31 renal was above 100 µM in each case. The TGI in the experiment on ACHN renal, in the experiment on HS 578T breast, in the experiment with HCT-15 colon, with CAKI-1 renal, in the experiment with MDA-N and in the experiment with SK-MEL-2 melanoma was above 100 µM in each case. The compound further gave a TGI in the experiment on K-562 leukemia above 100 µM.

For the compound `CC(OCc1ccccc1)C(NC(=O)C1CSSCC(NC(=O)C(Cc2ccccc2)NC(=O)OCc2ccccc2)C(=O)NC(Cc2ccccc2)C(=O)NC(Cc2cn(C=O)c3ccccc23)C(=O)NC(CCCCNC(=O)OCc2ccccc2)C(=O)NC(C(C)OCc2ccccc2)C(=O)N1)C(N)=O` (configuration not stated), the TGI in the experiment on COLO 205 colon is 10.5 µM; with SF-268 CNS, above 100 µM; in the experiment on SW-620 colon, above 54.5 µM; with UACC-257 melanoma, above 93 µM; in the experiment on SF-295 CNS, above 100 µM; in the experiment with SNB-19 CNS, above 100 µM. Also, the TGI was above 100 µM in the experiment with UACC-62 melanoma; above 37.9 µM with MOLT-4 leukemia; above 100 µM in the experiment on HT29 colon; above 63.8 µM in the experiment with T-47D breast; above 73.8 µM with SK-MEL-5 melanoma; above 100 µM in the experiment on UO-31 renal. Moreover, the TGI was above 100 µM in the experiment with ACHN renal; above 100 µM in the experiment on HS 578T breast; above 100 µM with HCT-15 colon; above 100 µM in the experiment with CAKI-1 renal; above 100 µM in the experiment with MDA-N; 28.7 µM in the experiment on SK-MEL-2 melanoma. In addition, the TGI in the experiment on K-562 leukemia is above 100 µM.
